Paper PMC9706563, “Development of Macrocyclic PRMT5–Adaptor Protein Interaction Inhibitors” (Journal of Medicinal Chemistry, 2022)
Square brackets hold non-standard residues; d marks the D form. Peptide text beside a SMILES is read from it. * marks the point of attachment. FITC = O=C1OC2(c3ccc(O)cc3Oc3cc(O)ccc32)c2ccc(NC(=S)*)cc21; Phe(4-guanidino) = N=C(N)Nc1ccc(C[C@H](N)C(=O)O)cc1; Phe(3-CF3) = N[C@@H](Cc1cccc(C(F)(F)F)c1)C(=O)O; Phe(F5) = N[C@@H](Cc1c(F)c(F)c(F)c(F)c1F)C(=O)O; Phe(4-COOH) = N[C@@H](Cc1ccc(C(=O)O)cc1)C(=O)O; Phe(3-Cl) = N[C@@H](Cc1cccc(Cl)c1)C(=O)O; Phe(2-F) = N[C@@H](Cc1ccccc1F)C(=O)O; Phe(2-I) = N[C@@H](Cc1ccccc1I)C(=O)O; hPhe = N[C@@H](CCc1ccccc1)C(=O)O; 2Pal = N[C@@H](Cc1ccccn1)C(=O)O; Cit = NC(=O)NCCC[C@H](N)C(=O)O; NMeV = CN[C@H](C(=O)O)C(C)C; Dab = NCC[C@H](N)C(=O)O; Alloc = C=CCOC(=O)*

The molecules below were run against T1, PRMT5-MEP50 (Homo sapiens, UniProt O14744) (assay: Direct binding fluorescence polarization (FP) assay of FITC-labeled peptides). Details: FITC-labeled peptide 1 nM, PRMT5-MEP50 titrated, read-out: KD.
T1 construct: The compounds were tested by means of FP with the full-length PRMT5-MEP50 complex; made in house
T1 sequence (O14744 whole entry): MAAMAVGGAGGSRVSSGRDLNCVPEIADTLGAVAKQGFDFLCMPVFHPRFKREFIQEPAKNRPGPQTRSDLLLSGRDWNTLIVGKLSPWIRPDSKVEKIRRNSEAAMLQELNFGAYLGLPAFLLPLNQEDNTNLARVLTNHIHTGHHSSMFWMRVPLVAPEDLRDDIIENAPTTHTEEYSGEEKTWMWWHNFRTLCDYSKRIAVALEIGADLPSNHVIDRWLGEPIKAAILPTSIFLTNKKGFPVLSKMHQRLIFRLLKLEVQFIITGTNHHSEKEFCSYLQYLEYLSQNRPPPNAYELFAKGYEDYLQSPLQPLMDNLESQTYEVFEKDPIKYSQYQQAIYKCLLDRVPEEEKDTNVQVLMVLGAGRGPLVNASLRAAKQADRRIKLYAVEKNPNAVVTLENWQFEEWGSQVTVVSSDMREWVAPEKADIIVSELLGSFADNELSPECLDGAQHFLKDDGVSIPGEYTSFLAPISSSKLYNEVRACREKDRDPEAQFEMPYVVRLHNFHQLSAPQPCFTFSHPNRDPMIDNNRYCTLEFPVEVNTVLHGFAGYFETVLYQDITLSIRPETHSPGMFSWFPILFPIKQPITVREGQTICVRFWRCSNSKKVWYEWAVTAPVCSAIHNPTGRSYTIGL
T1 sequence (Q9BQA1 whole entry partner): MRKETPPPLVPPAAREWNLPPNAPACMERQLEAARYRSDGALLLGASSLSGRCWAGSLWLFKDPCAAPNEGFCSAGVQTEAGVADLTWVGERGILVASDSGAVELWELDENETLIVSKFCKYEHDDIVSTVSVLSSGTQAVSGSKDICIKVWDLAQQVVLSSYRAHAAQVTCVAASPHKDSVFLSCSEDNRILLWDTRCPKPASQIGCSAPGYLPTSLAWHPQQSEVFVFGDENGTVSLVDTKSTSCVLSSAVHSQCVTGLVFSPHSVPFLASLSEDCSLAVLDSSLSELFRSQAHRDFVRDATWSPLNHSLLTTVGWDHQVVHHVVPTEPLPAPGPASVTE
Method: The assay was performed in a buffer of 50 mM 4-(2-hydroxyethyl)-1-piperazineethanesulfonic acid (HEPES), 250 mM NaCl, 1 mM tris(2-carboxyethyl)phosphine (TCEP), and 0.01% (v/v) Tween 20, pH 8.0, in black, 384-well plates with a total volume of 10 μL per well. […] The plates were incubated at room temperature for 1 to 2 h and analyzed on a plate reader using 485 nm excitation and 535 nm emission wavelength. The assay was performed in triplicate.
`CC(=O)N[C@H](C(=O)N1CCC[C@H]1C(=O)N[C@@H]1CCCCC[C@@H](C(=O)N[C@@H](CC(=O)O)C(=O)N[C@@H](C)C(=O)N[C@@H](CC(C(=O)O)C(=O)O)C(=O)N[C@@H](CCCCNC(=S)Nc2ccc3c(c2)C(=O)OC32c3ccc(O)cc3Oc3cc(O)ccc32)C(N)=O)NC(=O)[C@H](Cc2ccc([N+](=O)[O-])cc2)NC(=O)[C@H](CCC(N)=O)NC1=O)C(C)C` [Compound 50] was tested, and the Kd was 0.089 ± 0.011 µM.

Same assay, conditions: supplementary CSV, read-out: PRMT5-MEP50 Kd
With `CC(=O)N(C)[C@H](C(=O)N1CCC[C@H]1C(=O)NCC(=O)N[C@@H](CCC(N)=O)C(=O)N[C@@H](Cc1ccccc1)C(=O)N[C@@H](CC(=O)O)C(=O)N[C@@H](CC(=O)O)C(=O)N[C@@H](C)C(=O)N[C@@H](CC(=O)O)C(=O)N[C@@H](CCCCNC(=S)Nc1ccc2c(c1)C(=O)OC21c2ccc(O)cc2Oc2cc(O)ccc21)C(N)=O)C(C)C` [Compound 49] (Ac-[NMeV]PGQFDDADK(FITC)-NH2) the Kd was > 2 µM.
With `CC(=O)N[C@@H](Cc1ccc(O)cc1)C(=O)N1CCC[C@H]1C(=O)NCC(=O)N[C@@H](CCC(N)=O)C(=O)N[C@@H](Cc1ccccc1)C(=O)N[C@@H](CC(=O)O)C(=O)N[C@@H](CC(=O)O)C(=O)N[C@@H](C)C(=O)N[C@@H](CC(=O)O)C(=O)N[C@@H](CCCCNC(=S)Nc1ccc2c(c1)C(=O)OC21c2ccc(O)cc2Oc2cc(O)ccc21)C(N)=O` [Compound S2] (Ac-YPGQFDDADK(FITC)-NH2) the Kd was > 1 µM.
For `CC(=O)N[C@@H](Cc1ccccc1)C(=O)N1CCC[C@H]1C(=O)NCC(=O)N[C@@H](CCC(N)=O)C(=O)N[C@@H](Cc1ccccc1)C(=O)N[C@@H](CC(=O)O)C(=O)N[C@@H](CC(=O)O)C(=O)N[C@@H](C)C(=O)N[C@@H](CC(=O)O)C(=O)N[C@@H](CCCCNC(=S)Nc1ccc2c(c1)C(=O)OC21c2ccc(O)cc2Oc2cc(O)ccc21)C(N)=O` [Compound S3] (Ac-FPGQFDDADK(FITC)-NH2), the Kd was > 1 µM.
For `CC(=O)N[C@@H](CCc1ccccc1)C(=O)N1CCC[C@H]1C(=O)NCC(=O)N[C@@H](CCC(N)=O)C(=O)N[C@@H](Cc1ccccc1)C(=O)N[C@@H](CC(=O)O)C(=O)N[C@@H](CC(=O)O)C(=O)N[C@@H](C)C(=O)N[C@@H](CC(=O)O)C(=O)N[C@@H](CCCCNC(=S)Nc1ccc2c(c1)C(=O)OC21c2ccc(O)cc2Oc2cc(O)ccc21)C(N)=O` [Compound S4] (Ac-[hPhe]PGQFDDADK(FITC)-NH2), the Kd was > 1 µM.
`CC(=O)N[C@@H](Cc1c[nH]c2ccccc12)C(=O)N1CCC[C@H]1C(=O)NCC(=O)N[C@@H](CCC(N)=O)C(=O)N[C@@H](Cc1ccccc1)C(=O)N[C@@H](CC(=O)O)C(=O)N[C@@H](CC(=O)O)C(=O)N[C@@H](C)C(=O)N[C@@H](CC(=O)O)C(=O)N[C@@H](CCCCNC(=S)Nc1ccc2c(c1)C(=O)OC21c2ccc(O)cc2Oc2cc(O)ccc21)C(N)=O` [Compound S5] (Ac-WPGQFDDADK(FITC)-NH2) was tested, and the Kd was > 1 µM.
With `CC(=O)N[C@@H](CC(=O)O)C(=O)N1CCC[C@H]1C(=O)NCC(=O)N[C@@H](CCC(N)=O)C(=O)N[C@@H](Cc1ccccc1)C(=O)N[C@@H](CC(=O)O)C(=O)N[C@@H](CC(=O)O)C(=O)N[C@@H](C)C(=O)N[C@@H](CC(=O)O)C(=O)N[C@@H](CCCCNC(=S)Nc1ccc2c(c1)C(=O)OC21c2ccc(O)cc2Oc2cc(O)ccc21)C(N)=O` [Compound S6] (Ac-DPGQFDDADK(FITC)-NH2) the Kd was > 1 µM.
`CC(=O)N[C@@H](CCC(=O)O)C(=O)N1CCC[C@H]1C(=O)NCC(=O)N[C@@H](CCC(N)=O)C(=O)N[C@@H](Cc1ccccc1)C(=O)N[C@@H](CC(=O)O)C(=O)N[C@@H](CC(=O)O)C(=O)N[C@@H](C)C(=O)N[C@@H](CC(=O)O)C(=O)N[C@@H](CCCCNC(=S)Nc1ccc2c(c1)C(=O)OC21c2ccc(O)cc2Oc2cc(O)ccc21)C(N)=O` [Compound S7] (Ac-EPGQFDDADK(FITC)-NH2) was tested, and the Kd was 0.695 ± 0.078 µM.
With `CC(=O)N[C@H](C(=O)N1CCC[C@H]1C(=O)NCC(=O)N[C@@H](CC(N)=O)C(=O)N[C@@H](Cc1ccccc1)C(=O)N[C@@H](CC(=O)O)C(=O)N[C@@H](CC(=O)O)C(=O)N[C@@H](C)C(=O)N[C@@H](CC(=O)O)C(=O)N[C@@H](CCCCNC(=S)Nc1ccc2c(c1)C(=O)OC21c2ccc(O)cc2Oc2cc(O)ccc21)C(N)=O)C(C)C` [Compound S8] (Ac-VPGNFDDADK(FITC)-NH2) the Kd was > 1 µM.
For `CC(=O)N[C@H](C(=O)N1CCC[C@H]1C(=O)NCC(=O)N[C@@H](CCN)C(=O)N[C@@H](Cc1ccccc1)C(=O)N[C@@H](CC(=O)O)C(=O)N[C@@H](CC(=O)O)C(=O)N[C@@H](C)C(=O)N[C@@H](CC(=O)O)C(=O)N[C@@H](CCCCNC(=S)Nc1ccc2c(c1)C(=O)OC21c2ccc(O)cc2Oc2cc(O)ccc21)C(N)=O)C(C)C` [Compound S9] (Ac-VPG[Dab]FDDADK(FITC)-NH2), the Kd was > 1 µM.
`C=CCOC(=O)NCC[C@H](NC(=O)CNC(=O)[C@@H]1CCCN1C(=O)[C@@H](NC(C)=O)C(C)C)C(=O)N[C@@H](Cc1ccccc1)C(=O)N[C@@H](CC(=O)O)C(=O)N[C@@H](CC(=O)O)C(=O)N[C@@H](C)C(=O)N[C@@H](CC(=O)O)C(=O)N[C@@H](CCCCNC(=S)Nc1ccc2c(c1)C(=O)OC21c2ccc(O)cc2Oc2cc(O)ccc21)C(N)=O` [Compound S10] (Ac-VPG[Dab](Alloc)FDDADK(FITC)-NH2) was tested, and the Kd was > 1 µM.
`CC(=O)N[C@H](C(=O)N1CCC[C@H]1C(=O)NCC(=O)N[C@@H](CCCNC(N)=O)C(=O)N[C@@H](Cc1ccccc1)C(=O)N[C@@H](CC(=O)O)C(=O)N[C@@H](CC(=O)O)C(=O)N[C@@H](C)C(=O)N[C@@H](CC(=O)O)C(=O)N[C@@H](CCCCNC(=S)Nc1ccc2c(c1)C(=O)OC21c2ccc(O)cc2Oc2cc(O)ccc21)C(N)=O)C(C)C` [Compound S11] (Ac-VPG[Cit]FDDADK(FITC)-NH2) was tested, and the Kd was > 1 µM.
For `CC(=O)N[C@H](C(=O)N1CCC[C@H]1C(=O)NCC(=O)N[C@@H](CCC(N)=O)C(=O)N[C@@H](Cc1ccccc1F)C(=O)N[C@@H](CC(=O)O)C(=O)N[C@@H](CC(=O)O)C(=O)N[C@@H](C)C(=O)N[C@@H](CC(=O)O)C(=O)N[C@@H](CCCCNC(=S)Nc1ccc2c(c1)C(=O)OC21c2ccc(O)cc2Oc2cc(O)ccc21)C(N)=O)C(C)C` [Compound S12] (Ac-VPGQ[Phe(2-F)]DDADK(FITC)-NH2), the Kd was > 1 µM.
For `CC(=O)N[C@H](C(=O)N1CCC[C@H]1C(=O)NCC(=O)N[C@@H](CCC(N)=O)C(=O)N[C@@H](Cc1c(F)c(F)c(F)c(F)c1F)C(=O)N[C@@H](CC(=O)O)C(=O)N[C@@H](CC(=O)O)C(=O)N[C@@H](C)C(=O)N[C@@H](CC(=O)O)C(=O)N[C@@H](CCCCNC(=S)Nc1ccc2c(c1)C(=O)OC21c2ccc(O)cc2Oc2cc(O)ccc21)C(N)=O)C(C)C` [Compound S13] (Ac-VPGQ[Phe(F5)]DDADK(FITC)-NH2), the Kd was > 1 µM.
`CC(=O)N[C@H](C(=O)N1CCC[C@H]1C(=O)NCC(=O)N[C@@H](CCC(N)=O)C(=O)N[C@@H](Cc1ccccc1I)C(=O)N[C@@H](CC(=O)O)C(=O)N[C@@H](CC(=O)O)C(=O)N[C@@H](C)C(=O)N[C@@H](CC(=O)O)C(=O)N[C@@H](CCCCNC(=S)Nc1ccc2c(c1)C(=O)OC21c2ccc(O)cc2Oc2cc(O)ccc21)C(N)=O)C(C)C` [Compound S14] (Ac-VPGQ[Phe(2-I)]DDADK(FITC)-NH2) was tested, and the Kd was > 1 µM.
In the case of `CC(=O)N[C@H](C(=O)N1CCC[C@H]1C(=O)NCC(=O)N[C@@H](CCC(N)=O)C(=O)N[C@@H](Cc1cccc(Cl)c1)C(=O)N[C@@H](CC(=O)O)C(=O)N[C@@H](CC(=O)O)C(=O)N[C@@H](C)C(=O)N[C@@H](CC(=O)O)C(=O)N[C@@H](CCCCNC(=S)Nc1ccc2c(c1)C(=O)OC21c2ccc(O)cc2Oc2cc(O)ccc21)C(N)=O)C(C)C` [Compound S15] (Ac-VPGQ[Phe(3-Cl)]DDADK(FITC)-NH2), the Kd is reported as > 1 µM.
`CC(=O)N[C@H](C(=O)N1CCC[C@H]1C(=O)NCC(=O)N[C@@H](CCC(N)=O)C(=O)N[C@@H](Cc1cccc(C(F)(F)F)c1)C(=O)N[C@@H](CC(=O)O)C(=O)N[C@@H](CC(=O)O)C(=O)N[C@@H](C)C(=O)N[C@@H](CC(=O)O)C(=O)N[C@@H](CCCCNC(=S)Nc1ccc2c(c1)C(=O)OC21c2ccc(O)cc2Oc2cc(O)ccc21)C(N)=O)C(C)C` [Compound S16] (Ac-VPGQ[Phe(3-CF3)]DDADK(FITC)-NH2) was tested, and the Kd was > 1 µM.
For `CC(=O)N[C@H](C(=O)N1CCC[C@H]1C(=O)NCC(=O)N[C@@H](CCC(N)=O)C(=O)N[C@@H](Cc1ccccn1)C(=O)N[C@@H](CC(=O)O)C(=O)N[C@@H](CC(=O)O)C(=O)N[C@@H](C)C(=O)N[C@@H](CC(=O)O)C(=O)N[C@@H](CCCCNC(=S)Nc1ccc2c(c1)C(=O)OC21c2ccc(O)cc2Oc2cc(O)ccc21)C(N)=O)C(C)C` [Compound S17] (Ac-VPGQ[2Pal]DDADK(FITC)-NH2), the Kd was > 1 µM.
In the case of `CC(=O)N[C@H](C(=O)N1CCC[C@H]1C(=O)NCC(=O)N[C@@H](CCC(N)=O)C(=O)N[C@@H](Cc1ccc(O)cc1)C(=O)N[C@@H](CC(=O)O)C(=O)N[C@@H](CC(=O)O)C(=O)N[C@@H](C)C(=O)N[C@@H](CC(=O)O)C(=O)N[C@@H](CCCCNC(=S)Nc1ccc2c(c1)C(=O)OC21c2ccc(O)cc2Oc2cc(O)ccc21)C(N)=O)C(C)C` [Compound S18] (Ac-VPGQYDDADK(FITC)-NH2), the Kd is reported as > 1 µM.
For `CC(=O)N[C@H](C(=O)N1CCC[C@H]1C(=O)NCC(=O)N[C@@H](CCC(N)=O)C(=O)N[C@@H](Cc1ccc(C(=O)O)cc1)C(=O)N[C@@H](CC(=O)O)C(=O)N[C@@H](CC(=O)O)C(=O)N[C@@H](C)C(=O)N[C@@H](CC(=O)O)C(=O)N[C@@H](CCCCNC(=S)Nc1ccc2c(c1)C(=O)OC21c2ccc(O)cc2Oc2cc(O)ccc21)C(N)=O)C(C)C` [Compound S19] (Ac-VPGQ[Phe(4-COOH)]DDADK(FITC)-NH2), the Kd was > 1 µM.
In the case of `CC(=O)N[C@H](C(=O)N1CCC[C@H]1C(=O)NCC(=O)N[C@@H](CCC(N)=O)C(=O)N[C@@H](Cc1ccc(N=C(N)N)cc1)C(=O)N[C@@H](CC(=O)O)C(=O)N[C@@H](CC(=O)O)C(=O)N[C@@H](C)C(=O)N[C@@H](CC(=O)O)C(=O)N[C@@H](CCCCNC(=S)Nc1ccc2c(c1)C(=O)OC21c2ccc(O)cc2Oc2cc(O)ccc21)C(N)=O)C(C)C` [Compound S20] (Ac-VPGQ[Phe(4-guanidino)]DDADK(FITC)-NH2), the Kd is reported as > 1 µM.
For `CC(=O)N[C@H](C(=O)N1CCC[C@H]1C(=O)NCC(=O)N[C@@H](CCC(N)=O)C(=O)N[C@@H](CCc1ccccc1)C(=O)N[C@@H](CC(=O)O)C(=O)N[C@@H](CC(=O)O)C(=O)N[C@@H](C)C(=O)N[C@@H](CC(=O)O)C(=O)N[C@@H](CCCCNC(=S)Nc1ccc2c(c1)C(=O)OC21c2ccc(O)cc2Oc2cc(O)ccc21)C(N)=O)C(C)C` [Compound S21] (Ac-VPGQ[hPhe]DDADK(FITC)-NH2), the Kd was > 1 µM.
